This is an account of results in publication PMC8998618, “A Pharmacokinetic and Metabolism Study of the TRPC6 Inhibitor SH045 in Mice by LC-MS/MS” (International Journal of Molecular Sciences, 2022).

As usually defined, the CLint scaled is a measure of how fast metabolising enzymes remove a compound, apart from limits set by blood flow. A high value points to faster metabolism. Broadly, the half-life is the time needed for the level to fall by half in the phase considered. High values mean slow decline, low ones rapid decline.

The nature of this data set: time-dependent metabolization (stability) in MLM and IVIVE of hepatic clearance. Format: in vitro ADME, mouse. An excerpt:
In the widely used concept of the “well-stirred” model, liver represents a single uniform compartment. It is further assumed that the concentration of unbound SH045 leaving the liver is in equilibrium with its unbound concentration in hepatocytes (detailed calculation in Supplementary Materials SM8, summarized values in SR4). Briefly, microsomal intrinsic clearance was converted to hepatic clearance: CLhep = Q × fu × CLint/Q + (fu × CLint), where fu is the unbound fraction of SH045 in blood and Q is the hepatic blood flow in mice.
For this purpose, remaining concentrations of SH045 in microsomes were determined to calculate the intrinsic microsomal clearance CLint,micr, the intrinsic clearance CLint, equal to the maximum enzyme activity of liver and for in vitro-in vivo exploration of hepatic clearance CLhep in mouse and human using the well-stirred model. The algorithm for these calculations is given in detail in the Supplementary Materials SM8. […]
All microsome incubations were stopped with 1 mL ice -cold ACN containing 5 µg/mL IS, vortexed for 1 min and cooled at -20 °C for 10 min. […]
SM6 Metabolization studies in MLM and HLM and calculation of hepatic clearance For determination of vmax and Km of the NADPH-dependent microsomal depletion of SH045, the following incubations were performed for MLM and HLM, respectively. 2 µL SH045 (final concentration 0.5 – 100 µM, in triplicate), 12.5 µL HLM or MLM (finally 0.5 mg/mL protein) and 460.5 µL DPBS were vortexed and preincubated 37 °C for 5 min. The reaction was initiated by addition of 25 µL analogously pre-incubated β-NADPH (finally: 1 mM).
After gentle shaking at 37 °C and 300 rpm for 10 min, incubations were terminated and samples prepared as described […]
Testosterone (10 µM in ACN/DPBS 2/3, v/v) instead of SH045 was used as positive control and analyzed by an appropriate HPLC method with UV detection.
Negative controls contained either no NADPH, no MLM or HLM or none of them. […]
Menten constant Km were calculated using Lineweaver-Burk transformation. From Km an appropriate drug concentration of 2 µM was derived as prerequisite for experimental in vitro determination of t1/2 required for further exploration of clearance.
For this purpose, microsomes were incubated as described above with 2 µM SH045 for indicated time intervals up to 30 min. The remaining concentrations of SH045 were determined to calculate the intrinsic microsomal clearance CLint,micr the intrinsic clearance CLint, equal to the maximum enzyme activity of liver and for in vitro-in vivo exploration of hepatic clearance CLhep in mouse and human using the “well-stirred” model [6].
SM7 Identification of metabolism pathways and metabolites of SH045 in MLM and HLM To determine possible metabolism pathways of SH045 in MLM and HLM, an in vitro inhibition approach was performed with CYP-isoform specific inhibitors (final concentration): ciprofloxacin (CYP1A2; 150 µM), pilocarpine (CYP2A6; 50 µM), ticlopidine (CYP2B6; 5 µM), quercetin (CYP2C8; 2 µM), sulfaphenazole (CYP2C9; 10 µM), fluvoxamine (CYP2C19; 10 µM), quinidine (CYP2D6; 10 µM), 4-methyl pyrazole (CYP2E1; 100 µM) and ketoconazole (CYP3A4; 1 µM) [7, 8]. The inhibitors were dissolved in DPBS and appropriate methanol, the organic solvents not […]
SH045 (2 µM) was pre-incubated with MLM or HLM (0.5 mg/mL) and the specific inhibitor for 5 min at 37 °C in DPBS.
Ticlopidine, a time-dependent inhibitor was pre-incubated for 15 min [9]. Incubations were performed in triplicate with NADPH (1 mM) in a final volume of 500 µL for 2 min and 10 min with pre-incubated MLM and HLM, respectively, terminated with 1 mL ice-cold ACN and processed as described above for LC-MS/MS. A sample without any inhibitor served as a positive control. Incubations with an equal volume of DMSO instead of SH045 and samples without NADPH, MLM or HLM or both, respectively, served as negative controls.
To explore metabolites of SH045 formed by microsomes, D PBS, alamethicin (25 µg/mL) [10] and MLM or HLM (1.0 […]

For `C=C[C@@](C)(O)CC[C@H]1C(=C)C[C@H](OC(=O)NC)[C@H]2C(C)(C)CCC[C@]12C` [SH045, (1S,4S,4aR,8aS)-4-((S)-3-Hydroxy-3-methylpent-4-en-1-yl)-4a,8,8-trimethyl-3-methylenedecahydronaphthalen-1-yl methylcarbamate], the microsomal CLint at 2 µM (CD-1, mouse, liver microsomes, mouse liver microsomes, read-out: CLint, micr) amounted to 1170 µL/min/mg. This compound also displayed a CLint scaled at 2 µM (CD-1, mouse, liver microsomes, mouse, scaled from CLint,micr) of 276 L/h/kg. The half-life at 2 µM (male, CD-1, pH 7.4, mouse liver microsomes 0.5 mg/mL, 2 µM SH045, NADPH) came to 1.18 min. For the same compound, the “CLint, micr” value (mouse liver microsomes) came to 1173.6 µL/min/mg. Under “mouse, predicted by well-stirred model, fu 0.3%, Q 90 mL/min/kg”, the CLhep was 0.717 L/h/kg. This compound also had a CLint (mouse, scaled from CLint,micr) of 275.68 L/h/kg.
